In general, IC50 refers to the concentration that inhibits the measured activity by half. Read a low IC50 as higher potency.

Common to all, as to type: cell-based
The test system of one test is KB. The experiment in a line: In vitro potency of tomaymycin derivatives, WST-8 surviving fraction, KB. Particulars: Homo sapiens, 96 h; KB cells, incubated 4 days at 37° C., WST-8 read at 450 nm. How it is done: (§1) Samples of free tomaymycin derivative or tomaymycin derivative conjugate are added to a 96-well flat bottomed tissue culture plate and titrated using serial dilutions ranging from 1×10^−12 M to 3×10^−7 M. Antigen positive tumor cells or antigen negative tumor cells are added to the wells in such a way that there are triplicate samples for each drug concentration for each cell line. The plates are incubated at 37° C. in an atmosphere of 5% CO2 for 4 days.
(§2) At the end of the incubation period, 20 μl of the tetrazolium reagent WST-8 (2-(2-methoxy-nitrophenyl)-3-(4-nitrophenyl)-5-(2,4-disulfophenyl)-2-tetrazolium, monosodium salt) is added to each well, and the plates are returned to the incubator for 2 hours. The absorbance in each well of the plates is then measured using the Molecular Devices plate reader at 450 nm. Surviving fraction of cells at each concentration of tomaymycin derivative or conjugate are plotted.
In general terms: Formazan colour is commonly taken as a measure of viable cells.

In another test the test system is A549. The experiment in a line: In vitro potency of tomaymycin derivatives, WST-8 surviving fraction, A549. Particulars: Homo sapiens, 96 h; A549 cells, incubated 4 days at 37° C., WST-8 read at 450 nm. The method, then:
as §1, §2

The subject of another test is MCF7. The experiment in a line: In vitro potency of tomaymycin derivatives, WST-8 surviving fraction, MCF7. Particulars: Homo sapiens, 96 h; MCF7 cells, incubated 4 days at 37° C., WST-8 read at 450 nm. The method, then:
as §1, §2

For `C/C=C1\C[C@H]2C=Nc3cc(OCc4cc(COc5cc6c(cc5OC)C(=O)N5C/C(=C/C)C[C@H]5C=N6)cc(OC)c4)c(OC)cc3C(=O)N2C1` [Example 2, 8,8′-[5-methoxy-1,3-benzenediylbis(methylenoxy)]-bis[(S)-2-eth-(E)-ylidene-7-methoxy-1,2,3,11a-tetrahydro-5H-pyrrolo[2,1-c][1,4]benzodiazepin-5-one]], the IC50 with KB, in the test with A549 and in the test on MCF7 was < 0.001 nM throughout.

As to `C/C=C1\C[C@H]2C=Nc3cc(OCc4cccc(COc5cc6c(cc5OC)C(=O)N5C/C(=C/C)C[C@H]5C=N6)c4)c(OC)cc3C(=O)N2C1` [Example 1, 8,8′-[1,3-benzenediylbis(methylenoxy)]-bis[(S)-2-eth-(E)-ylidene-7-methoxy-1,2,3,11a-tetrahydro-5H-pyrrolo[2,1-c][1,4]benzodiazepin-5-one]], the IC50 in the test with KB, in the test with A549 and in the test on MCF7 was < 0.001 nM each time.

Turning to `C/C=C1\C[C@H]2C=Nc3cc(OCCC(C)CCOc4cc5c(cc4OC)C(=O)N4C/C(=C/C)C[C@H]4C=N5)c(OC)cc3C(=O)N2C1` [Example 5, 8,8′-[3-methyl-1,5-pentanediylbis(oxy)]-bis[(S)-2-eth-(E)-ylidene-7-methoxy-1,2,3,11a-tetrahydro-5H-pyrrolo[2,1-c][1,4]benzodiazepin-5-one]], the IC50 in the test with KB is 0.1 nM; in the test on A549, 0.07 nM; in the test with MCF7, 0.1 nM.

The values are drawn from US8163736B2, “Cytotoxic agents comprising new tomaymycin derivatives” (sanofi-aventis, priority 2006, dated 2012).
